Key:
Experiment in all cases: relative viability (nuclei count vs DMSO), 5 days (fraction); higher = more cells survive
EKVX = tested on: EKVX
In short: (§1)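 Lung cancer cell lines, seeded in 1536-well plates, were treated the following day by pin tool with a single drug or with five library-drug doses (not always all listed) in √10 steps on top of a fixed anchor-drug dose. Cells were fixed and nuclei stained in one step after 5 days, and nuclei were counted. Relative viability is the nuclei count for treated wells divided by that for vehicle wells, reported as medians of duplicate plates.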

NCI-H1993 = tested on: NCI-H1993
In short: as §1

NCI-H2085 = tested on: NCI-H2085
In short: as §1

IA-LM = tested on: IA-LM
In short: as §1

ABC-1 = tested on: ABC-1
In short: as §1

NCI-H1648 = tested on: NCI-H1648
In short: as §1

NCI-H2126 = tested on: NCI-H2126
In short: as §1

HCC-44 = tested on: HCC-44
In short: as §1

RERF-LC-KJ = tested on: RERF-LC-KJ
In short: as §1

NCI-H1703 = tested on: NCI-H1703
In short: as §1

A549 = tested on: A549
In short: as §1

Calu-6 = tested on: Calu-6
In short: as §1

EBC-1 = tested on: EBC-1
In short: as §1

NCI-H1299 = tested on: NCI-H1299
In short: as §1

## O=c1cc(-c2cccc3c2Sc2ccccc2S3)oc(N2CCOCC2)c1 + O=C(CCCCCCC(=O)Nc1ccccc1)NO [Vorinostat] (partner 1 µM)
EKVX; first compound 0.08 µM
  relative viability: 0.862
EKVX; first compound 0.253 µM
  relative viability: 0.839
EKVX; first compound 0.8 µM
  relative viability: 0.601
EKVX; first compound 2.53 µM
  relative viability: 0.675
EKVX; first compound 8 µM
  relative viability: 0.569
NCI-H1993; first compound 0.08 µM
  relative viability: 0.723
NCI-H1993; first compound 0.253 µM
  relative viability: 0.843
NCI-H1993; first compound 0.8 µM
  relative viability: 0.908
NCI-H1993; first compound 2.53 µM
  relative viability: 0.755
NCI-H1993; first compound 8 µM
  relative viability: 0.736
NCI-H2085; first compound 0.08 µM
  relative viability: 0.739
NCI-H2085; first compound 0.253 µM
  relative viability: 0.825
NCI-H2085; first compound 0.8 µM
  relative viability: 0.687
NCI-H2085; first compound 2.53 µM
  relative viability: 0.759
NCI-H2085; first compound 8 µM
  relative viability: 0.612
IA-LM; first compound 0.253 µM
  relative viability: 1.31
IA-LM; first compound 0.8 µM
  relative viability: 0.966
IA-LM; first compound 2.53 µM
  relative viability: 0.863
IA-LM; first compound 8 µM
  relative viability: 1.08
ABC-1; first compound 0.08 µM
  relative viability: 1.13
ABC-1; first compound 0.253 µM
  relative viability: 1.1
ABC-1; first compound 0.8 µM
  relative viability: 1.24
ABC-1; first compound 2.53 µM
  relative viability: 1.15
ABC-1; first compound 8 µM
  relative viability: 0.972
NCI-H1648; first compound 0.253 µM
  relative viability: 0.468
NCI-H1648; first compound 0.8 µM
  relative viability: 0.65
NCI-H1648; first compound 8 µM
  relative viability: 0.457
NCI-H2126; first compound 0.08 µM
  relative viability: 0.722
NCI-H2126; first compound 0.253 µM
  relative viability: 0.781
NCI-H2126; first compound 0.8 µM
  relative viability: 0.792
NCI-H2126; first compound 2.53 µM
  relative viability: 0.823
NCI-H2126; first compound 8 µM
  relative viability: 0.74
HCC-44; first compound 0.08 µM
  relative viability: 1.13
HCC-44; first compound 0.253 µM
  relative viability: 1.05
HCC-44; first compound 0.8 µM
  relative viability: 1.17
HCC-44; first compound 2.53 µM
  relative viability: 1.05
HCC-44; first compound 8 µM
  relative viability: 1.08
RERF-LC-KJ; first compound 0.08 µM
  relative viability: 0.558
RERF-LC-KJ; first compound 0.253 µM
  relative viability: 0.64
RERF-LC-KJ; first compound 0.8 µM
  relative viability: 0.713
RERF-LC-KJ; first compound 2.53 µM
  relative viability: 0.655
RERF-LC-KJ; first compound 8 µM
  relative viability: 0.666

## O=c1cc(N2CCOCC2)oc2c(-c3cccc4c3sc3ccccc34)cccc12 + O=C(c1cc(Cc2n[nH]c(=O)c3ccccc23)ccc1F)N1CCN(C(=O)C2CC2)CC1 [Olaparib] (partner 8 µM)
EKVX; first compound 0.01 µM
  relative viability: 0.769
EKVX; first compound 0.03162 µM
  relative viability: 0.807
EKVX; first compound 0.1 µM
  relative viability: 1.03
EKVX; first compound 0.3162 µM
  relative viability: 0.851
EKVX; first compound 1 µM
  relative viability: 0.891
NCI-H1703; first compound 0.01 µM
  relative viability: 0.548
NCI-H1703; first compound 0.03162 µM
  relative viability: 0.274
NCI-H1703; first compound 0.1 µM
  relative viability: 0.411
NCI-H1703; first compound 0.3162 µM
  relative viability: 0.446
NCI-H1703; first compound 1 µM
  relative viability: 0.511
A549; first compound 0.01 µM
  relative viability: 0.429
A549; first compound 0.03162 µM
  relative viability: 0.31
A549; first compound 0.1 µM
  relative viability: 0.295
A549; first compound 0.3162 µM
  relative viability: 0.356
A549; first compound 1 µM
  relative viability: 0.268
NCI-H1993; first compound 0.01 µM
  relative viability: 1.08
NCI-H1993; first compound 0.03162 µM
  relative viability: 0.958
NCI-H1993; first compound 0.1 µM
  relative viability: 1.23
NCI-H1993; first compound 0.3162 µM
  relative viability: 1.04
NCI-H1993; first compound 1 µM
  relative viability: 0.984
NCI-H2085; first compound 0.01 µM
  relative viability: 0.806
NCI-H2085; first compound 0.03162 µM
  relative viability: 0.813
NCI-H2085; first compound 0.1 µM
  relative viability: 0.775
NCI-H2085; first compound 0.3162 µM
  relative viability: 0.767
NCI-H2085; first compound 1 µM
  relative viability: 0.767
Calu-6; first compound 0.01 µM
  relative viability: 0.614
Calu-6; first compound 0.03162 µM
  relative viability: 0.606
Calu-6; first compound 0.1 µM
  relative viability: 0.602
Calu-6; first compound 0.3162 µM
  relative viability: 0.484
Calu-6; first compound 1 µM
  relative viability: 0.657
IA-LM; first compound 0.01 µM
  relative viability: 0.883
IA-LM; first compound 0.03162 µM
  relative viability: 0.941
IA-LM; first compound 0.1 µM
  relative viability: 0.766
IA-LM; first compound 0.3162 µM
  relative viability: 0.793
IA-LM; first compound 1 µM
  relative viability: 0.769
ABC-1; first compound 0.01 µM
  relative viability: 0.917
ABC-1; first compound 0.03162 µM
  relative viability: 0.686
ABC-1; first compound 0.1 µM
  relative viability: 0.535
ABC-1; first compound 0.3162 µM
  relative viability: 0.677
ABC-1; first compound 1 µM
  relative viability: 0.726
NCI-H1648; first compound 0.03162 µM
  relative viability: 0.787
NCI-H1648; first compound 0.1 µM
  relative viability: 1.28
NCI-H1648; first compound 0.3162 µM
  relative viability: 0.936
NCI-H1648; first compound 1 µM
  relative viability: 1.17
EBC-1; first compound 0.01 µM
  relative viability: 0.709
EBC-1; first compound 0.03162 µM
  relative viability: 0.667
EBC-1; first compound 0.1 µM
  relative viability: 0.757
EBC-1; first compound 0.3162 µM
  relative viability: 0.788
EBC-1; first compound 1 µM
  relative viability: 0.624
NCI-H2126; first compound 0.01 µM
  relative viability: 0.887
NCI-H2126; first compound 0.03162 µM
  relative viability: 0.91
NCI-H2126; first compound 0.1 µM
  relative viability: 0.938
NCI-H2126; first compound 0.3162 µM
  relative viability: 0.899
NCI-H2126; first compound 1 µM
  relative viability: 0.918
NCI-H1299; first compound 0.01 µM
  relative viability: 0.961
NCI-H1299; first compound 0.03162 µM
  relative viability: 0.946
NCI-H1299; first compound 0.1 µM
  relative viability: 0.985
NCI-H1299; first compound 0.3162 µM
  relative viability: 0.974
NCI-H1299; first compound 1 µM
  relative viability: 0.917
HCC-44; first compound 0.01 µM
  relative viability: 1.01
HCC-44; first compound 0.03162 µM
  relative viability: 0.909
HCC-44; first compound 0.1 µM
  relative viability: 0.917
HCC-44; first compound 0.3162 µM
  relative viability: 0.973
HCC-44; first compound 1 µM
  relative viability: 0.987
RERF-LC-KJ; first compound 0.01 µM
  relative viability: 1.03
RERF-LC-KJ; first compound 0.03162 µM
  relative viability: 0.979
RERF-LC-KJ; first compound 0.1 µM
  relative viability: 0.965
RERF-LC-KJ; first compound 0.3162 µM
  relative viability: 0.703
RERF-LC-KJ; first compound 1 µM
  relative viability: 0.893
